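1) Cells in 96-well plates. 2) Compound, 48 h, 5 concentrations. 3) Linear interpolation between surrounding doses. 4) Unreached endpoint = highest concentration. GI50: concentration for 50% inhibition of growth.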 The source made the active and inactive calls. Rule as the data show it: active = GI50 up to about 1.1 µM and inactive = higher.
Columns and labels:
Assay in all cases: inhibition of tumour cell growth, NCI panel, 48 h
[1] = test system: SF-295
[2] = test system: HCT-15
[3] = test system: NCI-H460
[4] = test system: Hs-578T
[5] = test system: CAKI-1
[6] = test system: ACHN
[7] = test system: SK-MEL-28
[8] = test system: SK-MEL-2
[9] = test system: EKVX
[10] = test system: UACC-257
[11] = test system: HOP-92
[12] = test system: PC-3
[13] = test system: SNB-75
[14] = test system: HCT-116
[15] = test system: NCI/ADR-RES
[16] = test system: MCF7
[17] = test system: NCI-H522
[18] = test system: SF-539
[19] = test system: MDA-MB-231
[20] = test system: MOLT-4

| Compound | GI50 [1] | GI50 [2] | GI50 [3] | GI50 [4] | GI50 [5] | GI50 [6] | GI50 [7] | GI50 [8] | GI50 [9] | GI50 [10] | GI50 [11] | GI50 [12] | GI50 [13] | GI50 [14] | GI50 [15] | GI50 [16] | GI50 [17] | GI50 [18] | GI50 [19] | GI50 [20] |
| --- | --- | --- | --- | --- | --- | --- | --- | --- | --- | --- | --- | --- | --- | --- | --- | --- | --- | --- | --- | --- |
| O=c1[nH]c2c(Nc3c4ccccc4nc4ccccc34)c([N+](=O)[O-])c(Nc3c4ccccc4nc4ccccc34)c([N+](=O)[O-])c2[nH]1 | 2.41 µM (inactive) | 1.82 µM | 1.33 µM (inactive) | 2.27 µM (inactive) | 2.15 µM (inactive) | 0.6 µM (active) | 3.13 µM (inactive) | 1.87 µM (inactive) | 1.82 µM (inactive) | 2.41 µM (inactive) | 1.67 µM (inactive) | 2.05 µM (inactive) | 2.48 µM (inactive) | 0.687 µM (active) | 1.01 µM (active) | 1.53 µM (inactive) | 1.09 µM (active) | 2.61 µM (inactive) | 2.06 µM (inactive) | 0.38 µM (active) |
| NS(=O)(=O)c1cc(Cl)c(NC(=S)NC(=O)Nc2ccc(Cl)c(Cl)c2)c(Cl)c1 | 37.8 µM (inactive) | 40.9 µM | 30.2 µM (inactive) | > 100 µM (inactive) | 76.4 µM (inactive) | 34.1 µM (inactive) | 84.3 µM (inactive) | 25.5 µM (inactive) | 28.4 µM (inactive) | 29.9 µM (inactive) | 55.7 µM (inactive) | 33.9 µM (inactive) | 59.8 µM (inactive) | 35.7 µM (inactive) | 37.4 µM (inactive) | 20.4 µM (inactive) | 26.1 µM (inactive) | 28.6 µM (inactive) | 50.1 µM (inactive) | 30.5 µM (inactive) |
| COc1ccc(/N=N/c2ccc3oc(=O)c(C(=O)Nc4ccccc4)cc3c2)cc1 | > 10 µM (inactive) | > 9.23 µM | > 10 µM (inactive) | > 10 µM (inactive) | > 10 µM (inactive) | > 5.81 µM (inactive) | > 10 µM (inactive) | > 10 µM (inactive) | > 10 µM (inactive) | > 10 µM (inactive) | > 10 µM (inactive) | > 6.01 µM (inactive) | > 9.31 µM (inactive) | > 10 µM (inactive) | > 10 µM (inactive) | > 9.29 µM (inactive) | > 10 µM (inactive) | > 9.31 µM (inactive) | > 10 µM (inactive) | 6.4 µM (inactive) |
| CS(=O)(=O)OCCN(CCOS(C)(=O)=O)c1ccc(/C=N/c2ccc(-c3csc(Cc4ccccc4)n3)cc2)c(Cl)c1 | 30.2 µM (inactive) | 30.3 µM | 0.387 µM (active) | 28.4 µM (inactive) | 1.23 µM (inactive) | 30.7 µM (inactive) | 45.1 µM (inactive) | > 46 µM (inactive) | 36.5 µM (inactive) | 3.83 µM (inactive) | 0.596 µM (active) | 22.5 µM (inactive) | 15.5 µM (inactive) | 19.5 µM (inactive) | 23.2 µM (inactive) | 2.65 µM (inactive) | > 43.4 µM (inactive) | 22.8 µM (inactive) | 25 µM (inactive) | 17.2 µM (inactive) |
| COc1ccccc1C1C2=C(COC2=O)OC(C)(C)Oc2cc3c(cc21)OCO3 (configuration not stated) | 2.67 µM (inactive) | 3.23 µM | 3.6 µM (inactive) | 4.6 µM (inactive) | 3.33 µM (inactive) | 7.91 µM (inactive) | 7.28 µM (inactive) | 4.06 µM (inactive) | 3.56 µM (inactive) | 6.81 µM (inactive) | 8.65 µM (inactive) | 2.19 µM (inactive) | 3.59 µM (inactive) | 3.75 µM (inactive) | 3.18 µM (inactive) | 3.15 µM (inactive) | 1.99 µM (inactive) | 2.74 µM (inactive) | 2.86 µM (inactive) | 3.82 µM (inactive) |
| O=C(/C=C/c1ccc(Cl)cc1)c1ccccc(=O)c1O | 1.22 µM (inactive) | 0.341 µM | 0.461 µM (active) | 4.99 µM (inactive) | 0.614 µM (active) | 0.881 µM (active) | 3.43 µM (inactive) | 1.75 µM (inactive) | 1.93 µM (inactive) | 2.49 µM (inactive) | 3.54 µM (inactive) | 4.08 µM (inactive) | 2.86 µM (inactive) | 0.957 µM (active) | 0.36 µM (active) | 2.43 µM (inactive) | 5.42 µM (inactive) | 2.32 µM (inactive) | 1.44 µM (inactive) | 0.798 µM (active) |
| CN(C)CN1C(=O)S/C(=C2\C(=O)N(CN(C)C)c3ccccc32)C1=O | 96.6 µM (inactive) | 30.4 µM | 32.3 µM (inactive) | 34.7 µM (inactive) | 32 µM (inactive) | 43.7 µM (inactive) | 64.7 µM (inactive) | 32.1 µM (inactive) | 43.3 µM (inactive) | 32.7 µM (inactive) | > 100 µM (inactive) | 45.6 µM (inactive) | 22.2 µM (inactive) | 39.8 µM (inactive) | 40.2 µM (inactive) | 38.5 µM (inactive) | 36.5 µM (inactive) | 40.6 µM (inactive) | 66.2 µM (inactive) | < 0.01 µM (active) |
| COc1cccc2c1/c(=C/c1ccc(N(C)C)cc1)c1cc(-c3ccccc3)[n+](C)n12 | 0.0813 µM (active) | 0.471 µM | 0.106 µM (active) | 0.147 µM (active) | 0.804 µM (active) | 0.216 µM (active) | 0.239 µM (active) | 0.131 µM (active) | – | 0.113 µM (active) | 0.0414 µM (active) | 0.0321 µM (active) | 0.189 µM (active) | 0.107 µM (active) | 3.19 µM (inactive) | 0.0957 µM (active) | 0.168 µM (active) | 0.169 µM (active) | 0.259 µM (active) | 0.0897 µM (active) |
| Cc1cc(S(=O)(=O)/N=C(\NN)NNc2cccc(C(F)(F)F)n2)c(S)cc1Cl | – | 18.8 µM | 26.9 µM (inactive) | 22.2 µM (inactive) | 20.8 µM (inactive) | 21.4 µM (inactive) | 15 µM (inactive) | 25.5 µM (inactive) | 22.6 µM (inactive) | 32.6 µM (inactive) | 4.21 µM (inactive) | 17.3 µM (inactive) | 14.6 µM (inactive) | 21.3 µM (inactive) | 19.8 µM (inactive) | > 10 µM (inactive) | 24.4 µM (inactive) | 21.5 µM (inactive) | 31.4 µM (inactive) | 19.2 µM (inactive) |
| O=C1OC(c2ccc(Cl)cc2)=N/C1=C\c1ccccc1 | > 100 µM (inactive) | > 100 µM | > 100 µM (inactive) | > 100 µM (inactive) | > 100 µM (inactive) | > 100 µM (inactive) | > 100 µM (inactive) | > 100 µM (inactive) | > 100 µM (inactive) | > 100 µM (inactive) | > 100 µM (inactive) | > 100 µM (inactive) | > 100 µM (inactive) | > 100 µM (inactive) | 78 µM (inactive) | > 100 µM (inactive) | 49.2 µM (inactive) | > 100 µM (inactive) | > 100 µM (inactive) | – |
